Measured values taken from US6492375B2, “Partially saturated calcium channel blockers” (NeuroMed Technologies, Inc., priority 1998, dated 2002).
Several values for one entry are separate records, joined by “and”; a condition that tells them apart may be missing. Equal entries are not always repeated.

These compounds were tested against T1, rat α1B+α2b+β1b channels (Rattus norvegicus, UniProt Q02294) (assay: N-type calcium channel blocking activity, whole cell patch recordings). Settings: N-type calcium channels expressed in human embryonic kidney cells; 5 mM barium as charge carrier.
T1 construct: expressed in transfected cells
T1 sequence (Q02294 whole entry): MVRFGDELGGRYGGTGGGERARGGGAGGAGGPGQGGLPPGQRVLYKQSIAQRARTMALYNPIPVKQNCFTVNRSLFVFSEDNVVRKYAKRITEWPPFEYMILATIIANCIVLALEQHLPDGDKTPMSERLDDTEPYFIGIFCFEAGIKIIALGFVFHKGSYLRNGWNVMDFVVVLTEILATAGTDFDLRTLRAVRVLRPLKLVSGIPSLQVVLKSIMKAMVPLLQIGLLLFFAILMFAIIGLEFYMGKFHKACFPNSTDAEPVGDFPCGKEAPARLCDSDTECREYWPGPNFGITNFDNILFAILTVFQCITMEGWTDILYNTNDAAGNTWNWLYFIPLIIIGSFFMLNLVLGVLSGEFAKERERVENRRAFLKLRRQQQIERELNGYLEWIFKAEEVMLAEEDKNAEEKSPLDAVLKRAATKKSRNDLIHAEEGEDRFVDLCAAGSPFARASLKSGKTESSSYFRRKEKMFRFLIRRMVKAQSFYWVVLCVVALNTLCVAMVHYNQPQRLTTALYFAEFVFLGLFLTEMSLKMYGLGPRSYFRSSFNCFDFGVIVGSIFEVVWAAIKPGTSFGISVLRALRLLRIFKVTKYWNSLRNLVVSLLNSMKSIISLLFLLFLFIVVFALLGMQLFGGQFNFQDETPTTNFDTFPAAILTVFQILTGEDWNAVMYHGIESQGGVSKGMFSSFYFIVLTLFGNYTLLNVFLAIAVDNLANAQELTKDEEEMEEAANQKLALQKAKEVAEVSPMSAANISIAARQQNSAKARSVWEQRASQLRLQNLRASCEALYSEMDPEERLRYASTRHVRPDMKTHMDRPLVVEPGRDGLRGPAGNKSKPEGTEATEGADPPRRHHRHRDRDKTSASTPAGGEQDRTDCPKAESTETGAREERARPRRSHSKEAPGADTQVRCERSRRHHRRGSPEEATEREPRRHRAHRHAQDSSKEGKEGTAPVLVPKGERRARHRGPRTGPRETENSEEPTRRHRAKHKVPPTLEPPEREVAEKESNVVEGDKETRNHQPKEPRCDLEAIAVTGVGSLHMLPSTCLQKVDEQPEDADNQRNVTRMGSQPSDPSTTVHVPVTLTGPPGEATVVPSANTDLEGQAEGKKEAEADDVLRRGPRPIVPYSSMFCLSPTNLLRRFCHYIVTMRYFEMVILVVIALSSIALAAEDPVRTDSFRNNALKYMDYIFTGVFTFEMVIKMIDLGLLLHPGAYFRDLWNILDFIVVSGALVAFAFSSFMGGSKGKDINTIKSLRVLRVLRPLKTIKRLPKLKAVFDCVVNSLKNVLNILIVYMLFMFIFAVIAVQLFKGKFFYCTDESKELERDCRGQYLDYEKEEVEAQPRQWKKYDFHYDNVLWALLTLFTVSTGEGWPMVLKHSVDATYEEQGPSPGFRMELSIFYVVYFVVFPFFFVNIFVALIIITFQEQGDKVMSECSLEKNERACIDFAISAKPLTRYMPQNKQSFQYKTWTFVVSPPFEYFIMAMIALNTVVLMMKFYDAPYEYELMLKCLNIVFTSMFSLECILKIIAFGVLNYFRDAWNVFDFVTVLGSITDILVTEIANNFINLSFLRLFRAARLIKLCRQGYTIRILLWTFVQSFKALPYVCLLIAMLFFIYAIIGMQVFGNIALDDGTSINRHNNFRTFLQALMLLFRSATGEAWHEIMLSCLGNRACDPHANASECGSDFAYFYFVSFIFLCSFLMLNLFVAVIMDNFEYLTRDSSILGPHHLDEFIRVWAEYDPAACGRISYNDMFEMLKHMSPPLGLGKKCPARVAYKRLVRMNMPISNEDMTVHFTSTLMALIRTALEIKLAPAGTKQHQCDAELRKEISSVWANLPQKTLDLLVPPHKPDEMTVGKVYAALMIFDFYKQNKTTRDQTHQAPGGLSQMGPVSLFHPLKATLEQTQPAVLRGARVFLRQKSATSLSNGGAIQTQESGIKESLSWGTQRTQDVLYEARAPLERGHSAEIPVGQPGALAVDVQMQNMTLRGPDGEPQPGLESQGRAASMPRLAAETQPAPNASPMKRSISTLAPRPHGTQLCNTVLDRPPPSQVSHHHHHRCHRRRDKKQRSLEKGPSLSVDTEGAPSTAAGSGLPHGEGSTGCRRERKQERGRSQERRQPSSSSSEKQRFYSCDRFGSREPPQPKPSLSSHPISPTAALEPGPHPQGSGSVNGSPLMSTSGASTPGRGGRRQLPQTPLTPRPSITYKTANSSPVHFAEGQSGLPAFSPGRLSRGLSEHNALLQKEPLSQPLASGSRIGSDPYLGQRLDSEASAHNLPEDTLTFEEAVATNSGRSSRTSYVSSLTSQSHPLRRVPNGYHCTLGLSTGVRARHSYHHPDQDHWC
T1 sequence (P54290 25-944 partner limits assumed): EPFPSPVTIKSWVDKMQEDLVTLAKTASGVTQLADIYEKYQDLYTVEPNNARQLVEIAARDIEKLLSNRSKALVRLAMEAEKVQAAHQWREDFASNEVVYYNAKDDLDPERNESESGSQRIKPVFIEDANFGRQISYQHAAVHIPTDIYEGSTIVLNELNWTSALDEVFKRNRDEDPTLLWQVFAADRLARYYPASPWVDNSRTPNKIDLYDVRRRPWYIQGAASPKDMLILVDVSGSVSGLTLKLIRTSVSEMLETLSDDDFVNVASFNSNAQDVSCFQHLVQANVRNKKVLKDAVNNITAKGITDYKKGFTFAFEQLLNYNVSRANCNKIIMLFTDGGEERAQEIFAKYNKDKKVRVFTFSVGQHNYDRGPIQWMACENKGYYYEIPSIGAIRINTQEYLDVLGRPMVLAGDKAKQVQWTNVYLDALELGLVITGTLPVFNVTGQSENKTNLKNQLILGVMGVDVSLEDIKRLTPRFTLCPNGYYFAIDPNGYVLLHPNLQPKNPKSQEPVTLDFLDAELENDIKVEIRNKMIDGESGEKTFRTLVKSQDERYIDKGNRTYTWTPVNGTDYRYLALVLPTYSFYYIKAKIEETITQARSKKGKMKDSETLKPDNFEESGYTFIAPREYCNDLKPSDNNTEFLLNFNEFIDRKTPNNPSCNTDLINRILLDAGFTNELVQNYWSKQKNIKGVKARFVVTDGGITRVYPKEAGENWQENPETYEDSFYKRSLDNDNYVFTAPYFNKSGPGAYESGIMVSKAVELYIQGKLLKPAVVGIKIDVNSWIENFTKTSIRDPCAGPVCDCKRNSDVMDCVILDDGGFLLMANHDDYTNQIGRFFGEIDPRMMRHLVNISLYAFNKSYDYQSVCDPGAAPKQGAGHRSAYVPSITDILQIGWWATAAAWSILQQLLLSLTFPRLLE
T1 sequence (P54290 945-1091 partner limits assumed): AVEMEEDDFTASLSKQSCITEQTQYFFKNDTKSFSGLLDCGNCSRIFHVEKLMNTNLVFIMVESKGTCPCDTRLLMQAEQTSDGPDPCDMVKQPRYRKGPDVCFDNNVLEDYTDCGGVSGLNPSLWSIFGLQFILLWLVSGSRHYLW
T1 sequence (P54283 whole entry partner): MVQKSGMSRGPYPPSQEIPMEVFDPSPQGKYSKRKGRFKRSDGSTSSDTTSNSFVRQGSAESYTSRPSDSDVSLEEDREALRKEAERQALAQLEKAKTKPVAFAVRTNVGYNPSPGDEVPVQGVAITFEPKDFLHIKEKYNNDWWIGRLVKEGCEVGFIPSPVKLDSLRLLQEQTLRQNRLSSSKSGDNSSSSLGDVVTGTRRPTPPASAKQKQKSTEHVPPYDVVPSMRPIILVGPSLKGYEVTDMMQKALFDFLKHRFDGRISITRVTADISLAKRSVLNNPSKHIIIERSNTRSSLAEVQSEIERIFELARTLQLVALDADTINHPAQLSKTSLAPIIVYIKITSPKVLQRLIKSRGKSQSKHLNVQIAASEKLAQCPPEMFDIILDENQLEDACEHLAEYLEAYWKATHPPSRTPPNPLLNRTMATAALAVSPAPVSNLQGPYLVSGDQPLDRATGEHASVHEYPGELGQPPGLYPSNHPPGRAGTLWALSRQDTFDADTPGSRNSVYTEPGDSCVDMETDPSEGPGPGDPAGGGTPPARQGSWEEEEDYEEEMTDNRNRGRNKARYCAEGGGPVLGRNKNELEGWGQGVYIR
Format: cell-based
Experimental: Antagonist activity was measured using whole cell patch recordings on human embryonic kidney cells either stably or transiently expressing rat α1B+α2b+β1b channels with 5 mM barium as a charge carrier.
For transient expression, host cells, such as human embryonic kidney cells, HEK 293 (ATCC# CRL 1573) are grown in standard DMEM medium supplemented with 2 mM glutamine and 10% fetal bovine serum. HEK 293 cells are transfected by a standard calcium-phosphate-DNA coprecipitation method using the rat α1B+β1b+α2δ N-type calcium channel subunits in a vertebrate expression vector (for example, see Current Protocols in Molecular Biology).
After an incubation period of from 24 to 72 hrs the culture medium is removed and replaced with external recording solution (see below). Whole cell patch clamp experiments are performed using an Axopatch 200B amplifier (Axon Instruments, Burlingame, Calif.) linked to an IBM compatible personal computer equipped with pCLAMP software. Borosilicate glass patch pipettes (Sutter Instrument Co., Novato, Calif.) were polished (Microforge, Narishige, Japan) to a resistance of about 4 MΩ when filled with cesium methanesulfonate internal solution (composition in MM: 109 CsCH3SO4, 4 MgCl2, 9 EGTA, 9 HEPES, pH 7.2). Cells were bathed in 5 mM Ba^++ (in mM: 5 BaCl2, 1 MgCl2, 10 HEPES, 40 tetraethylammonium chloride, 10 glucose, 87.5 CsCl pH 7.2). Current data shown were elicited by a train of 100 ms test pulses at 0.066 Hz from −100 mV and/or −80 mV to various potentials (min. −20 mV, max. +30 mV). Drugs were perfused directly into the vicinity of the cells using a microperfusion system.
Normalized dose-response curves were fit (Sigmaplot 4.0, SPSS Inc., Chicago, Ill.) by the Hill equation to determine IC50 values. Steady-state inactivation curves were plotted as the normalized test pulse amplitude following 5 s inactivating prepulses at +10 mV increments. Inactivation curves were fit (Sigmaplot 4.0) with the Boltzman equation, Ipeak (normalized)=1/(1+exp((V-Vh)z/25.6)), where V and Vh are the conditioning and half inactivation potentials, respectively, and z is the slope factor. […]

SMILES	IC50
C(=Cc1ccccc1)CN1CCN(CC(C2CCCCC2)C2CCCCC2)CC1	10.2 µM
O=C(C(C1CCCCC1)C1CCCCC1)N1CCN(CC=Cc2ccccc2)CC1	5.9 µM
C(=Cc1ccccc1)CN1CCN(CC(c2ccccc2)C2CCCCC2)CC1 (stereo not drawn)	10.6 µM and ~5 µM
O=C(C(c1ccccc1)C1CCCCC1)N1CCN(CC=Cc2ccccc2)CC1 (stereo not drawn)	~5 µM
O=C(CCCCCC(c1ccccc1)C1CCCCC1)N1CCN(CC=Cc2ccccc2)CC1 (stereo not drawn)	12.2 µM
C(=Cc1ccccc1)CN1CCN(CCCCCC(c2ccccc2)C2CCCCC2)CC1 (stereo not drawn)	5.9 µM
C(=Cc1ccccc1)CN1CCN(CCCCCCC(c2ccccc2)C2CCCCC2)CC1 (stereo not drawn)	3.2 µM
O=C(C(C1CCCCC1)C1CCCCC1)N1CCN(Cc2ccccc2)CC1 [Ya=c-hex, c-hex; X^1=CHCO; X^2=CH2; Ar=φ]	14.2 µM
O=C(C(c1ccccc1)C1CCCCC1)N1CCN(Cc2ccccc2)CC1 (stereo not drawn) [Ya=φ, c-hex; X^1=CHCO; X^2=CH2; Ar=φ]	~20 µM
